Experimental data: US20160008336A1, “HDAC INHIBITORS FOR THE TREATMENT OF TRAUMATIC BRAIN INJURY” (Lixte Biotechnology, Inc., priority 2013, published 2016)
“Also recorded” adds a separate entry of the source.

Tests used:
[1] = tested on: rodent brains following TBI (controlled cortical impact); assay: FDG-PET imaging of rat brains after TBI; format: in vivo; settings: for glucose uptake levels: rat brain cells following TBI, activity expected analogous to 205
Description: (§1) The rats are anesthetized as described above. The rodent's head is be shaved, the animal placed in a stereotaxic device, the skin is prepared as in the Aseptic Techniques described above and the skull exposed using a small surgical incision over the temporal scalp. A small surgical incision (9-10 mm), a burr hole in the skull (5-6 mm), and a single contusion over the right frontal cortex is performed (FIG. 7). A 5.0 mm burr hole is drilled into the skull with a hand-held trephine to expose the dura mater. […] A single contusion is then made onto the surface of the dura (tip penetration depth of 2.1 mm, velocity of 5 m/s) over the left frontal cortex. Following CCI, the burr hole is covered with a bone flap, sealed with Jet Denture Repair Professional Package, and then the incision is closed with non-absorbable suture in a simple interrupted pattern. Sham-treated controls are treated similarly, but the impactor is not activated.
(§2) TBI rodent model animals are treated with HDACis post-surgery at 4 h, 24 h and 48 h. The efficiency of HDACi treatment is evaluated as shown in FIG. 9 by studying the following parameters: • A=FDG-PET imaging analysis • B=Rota behavior test • C=Pathology analysis (H&E, IHC, IF, & gross) • D=Frozen samples (2D gel and WB) • E=Harvest animals and procure brain samples • Tx=HDI treatment
FDG-PET imaging is conducted in larger animal cohorts treated with different drug concentrations to further confirm HDACis potential therapeutic effect in treating TBI and in increasing […].
^18F-FDG is purchased from the Nuclear Pharmacy of Cardinal Health, and reconstituted with sterile saline. PET scans and image analysis are performed using an Inveon microPET scanner (Siemens Medical Solutions). Each rat is injected with 18.5 MBq (500 μCi) of ^18F-FDG via tail vein. All the rats are maintained under anesthesia and warmed condition. 10 min static scans are acquired at 1 h after injection. The images are reconstructed using a two-dimensional ordered-subset expectation maximum (OSEM) algorithm, and no correction is applied for attenuation or scatter. For each microPET scan, regions of interest (ROIs) are drawn over the brain and muscle region using vendor software ASI Pro 5.2.4.0 on decay-corrected whole-body coronal images. The radioactivity accumulation within brain, heart and brown fat are obtained from mean pixel values within the multiple ROI volumes and then converted to megabecquerels (MBq) per milliliter […] using a conversion factor. These values are then divided by the administered activity to obtain (assuming a tissue density of 1 g/ml) an image-ROI-derived percent injected dose per gram (% ID/g).

Caspase 3 = assay: Western blot of TBI brain tissue, Caspase 3; format: in vivo, rat; settings: for Pro-Caspase 3 expression: rat brain cells following TBI
Description: as §2
(§3) Sections of frozen tissue protein from normal brain and TBI tissues in the injury area are extracted in T-PER solution, sonicated and centrifuged at 15,000 g at 4° C. to remove insoluble debris. The supernatant is used as the lysate. The protein concentration in each sample is measured by a colorimetric assay (Bio-Rad Protein Assay Kit) (Bio-Rad; Hercules, Calif.). Samples are denatured at 95° C. for 5 minutes in protein loading buffer. Equal amounts of protein at thirty micrograms of each lysate is loaded onto 4%-20% SDS-polyacrylamide gel (Invitrogen), and the proteins are electrophoretically transferred to nitrocellulose membranes and blocked with 5% milk solution. Detection of protein-bound primary antibodies is performed with a horseradish peroxidase-conjugated secondary antibody specific to rabbit or mouse immunoglobulin for one hour and an enhanced chemiluminescence system. Expression of specific proteins in each sample are determined and TBI injury tissue protein expression are compared to normal brain.

phosphorylated-AKT = assay: Western blot of TBI brain tissue, p-AKT; format: in vivo; settings: rat brain cells following TBI; for p-Akt expression: activity expected analogous to 205
Description: as §2, §3

Nestin = assay: Immunofluorescence / immunohistochemistry after TBI, Nestin; format: in vivo, rat
Description: as §2
(§4) Immunohistochemistry staining is performed using commercially available GFAP and Nestin primary antibodies (Abcam) on formalin-fixed paraffin-embedded tissue mounted on positively charged slides. The expression of Nestin is thought to identify neural stem and progenitor cells within the central nervous system. GFAP expression, however, is thought to represent astrocyte activation. Samples are labeled and visualized using a DAB staining kit (EnvisionKit; Dako, Carpinteria, Calif., USA). Immunofluorescence staining is also performed (with primary antibodies for GFAP and Nestin) in order to best assess the spatial and temporal pattern of expression of molecular markers associated with astrocyte activation and gliosis observed during the brain tissue injury repair process. The specimens are visualized using a Zeiss LSM 510 confocal microscope (Carl Zeiss, Thornwood, N.Y., USA).

[2] = tested on: post-traumatic brain injured rats; assay: Behavioral motor performance (balance beam) test after TBI; format: in vivo, rat; settings: for motor skills tests: rats post-TBI, activity expected analogous to 205
Description: as §1, §2
Balance Beam Test: The balance beam is a test of motor coordination (3-4). It is also a useful assay for sedation and joint pathology. Several beams are available. In general the round beams are harder than the square beams, and the thinner the beam the harder the test. In this test, animals have to walk and cross a round balance beam (like across one meter bridge-bar) to test their balance and motor skills. The score is recorded compared to sham group: • 100%: walk balance and cross whole balance beam. • 10%-90%: walk balance and cross balance beam from 10 cm to 90 cm. • 0%: walk unbalance and slip down

[3] = tested on: TBI damage area of rodent brain; assay: Pathological analysis (H & E staining) and gross appearance after TBI; format: in vivo, rat
Description: as §1, with “Sham-treated controls are treated similarly, but the impactor is not activated.” left out
as §2
Brain injury areas are measured and calculated post-TBI at 4 hours, day 1, and week (according to FIG. 9). […]

GFAP = assay: Immunofluorescence / immunohistochemistry after TBI, GFAP; format: in vivo, rat; settings: vs sham and TBI untreated brains, FIG. 6
Description: as §2, §4

[4] = relative to SAHA; cited from earlier work
transformed cells = settings: in vitro and in vivo; background; cited from earlier work
[5] = activity expected analogous to 205

Row | Structure (SMILES) | glucose uptake levels [1] | Pro-Caspase 3 expression (Caspase 3; [5]) | p-Akt expression (phosphorylated-AKT) | formation of new stem-like proliferative neural cells following TBI (Nestin; [5]) | motor skills tests [2] | other results
1 | O=C(CCCCCNC(=O)c1ccccc1S)Nc1ccccc1 [Compound 201, 2-Mercapto-N-[5-(phenyl-3-ylcarbamoyl)pentyl]benzamide] | increase | decrease | increase | induce formation | perform significantly better | 
2 | O=C(NCCCCCCNC(=O)c1ccccc1O)c1ccccc1O [Compound 203] | increase | decrease | increase | induce formation | perform significantly better | 
3 | O=C(NCCCCCCNC(=O)c1ccccc1S)c1ccccc1S [Compound 204] | increase | decrease | increase | induce formation | perform significantly better | 
4 | O=C(CCCCCNC(=O)c1ccccc1S)Nc1cccnc1 [Compound 205, 2-Mercapto-N-[5-(pyridin-3-ylcarbamoyl)pentyl]benzamide] |  |  |  |  |  | glucose uptake levels at the site of injury (FDG-PET) ([1]; rats post-TBI, treated post-surgery at 4 h, 24 h and 48 h, FIG. 1): significantly increased; also recorded: increased glucose levels; angiogenic activity in the brain ([1]; rodent model of TBI, post-injury administration): up-regulated angiogenic activity; Cleaved Caspase 3 expression (Caspase 3; Western blot, FIG. 5a): significantly decreased; Pro-Caspase 3 expression (Caspase 3; FIG. 5a): decreased; H & E staining: reactive gliosis and cellularity ([3]; FIG. 3): increased reactive gliosis (arrow) and more active brain cells observed; also recorded: increased reactive gliosis (as well as increased cellularity); gross appearance of TBI damage area / scarring ([3]; gross post-mortem examination, FIG. 2): improved; also recorded: much less scaring and less appearance of obvious injury; also recorded: reduced scarring; p-AKT expression (phosphorylated-AKT; FIG. 5b): increased; GFAP staining / expression (GFAP): increased; formation of new stem-like proliferative neural cells following TBI (Nestin; following TBI): induced formation; Nestin staining / expression (Nestin; vs sham and TBI untreated brains, FIG. 6): increased; half-life in vivo [4]: longer half-life in vivo; behavioral motor performance (motor skill tests) ([2]; post-injury administration, 10 mg/kg, one meter bar, FIG. 4): improves behavioral performance; also recorded: performed significantly better
5 | CN(C)c1ccc(NC(=O)CCCCCNC(=O)c2ccccc2S)cc1 [Compound 206] | increase | decrease | increase | induce formation | perform significantly better | 
6 | O=C(CCCCCNC(=O)c1cc(Cl)ccc1S)Nc1cccnc1 [Compound 207a] | increase | decrease | increase | induce formation | perform significantly better | 
7 | O=C(NCCCCCNC(=O)c1ccccc1S)c1cccnc1 [Compound 208] | increase | decrease | increase | induce formation | perform significantly better | 
8 | Nc1ccc(NC(=O)CCCCCNC(=O)c2ccccc2S)cc1 [Compound 209] | increase | decrease | increase | induce formation | perform significantly better | 
9 | O=C(CCCCCNC(=O)c1cc(Cl)ccc1S)Nc1ccccc1 [Compound 210] | increase | decrease | increase | induce formation | perform significantly better | 
10 | COc1ccc(S)c(C(=O)NCCCCCC(=O)Nc2ccccc2)c1 [Compound 211] | increase | decrease | increase | induce formation | perform significantly better | 
11 | O=C(CCCCCCNC(=O)c1ccccc1S)Nc1ccccc1 [Compound 212] | increase | decrease | increase | induce formation | perform significantly better | 
12 | O=C(CCCCCCCNC(=O)c1ccccc1S)Nc1ccccc1 [Compound 213] | increase | decrease | increase | induce formation | perform significantly better | 
13 | O=C(CCCCCCCCCCNC(=O)c1ccccc1S)Nc1ccccc1 [Compound 214] | increase | decrease | increase | induce formation | perform significantly better | 
14 | O=C(CCCCCCC(=O)Nc1ccccc1)NO [SAHA, Suberoylanilide hydroxamic acid] |  |  |  |  |  | growth arrest and death of transformed cells (transformed cells): causes growth arrest and death
